Measurements published in the supplement of paper PMC10307832.

Columns and labels:
BI-D1870 + AZD7762 = compound: CC(C)CCN1c2nc(Nc3cc(F)c(O)c(F)c3)ncc2N(C)C(=O)C1C [BI-D1870] + NC(=O)Nc1cc(-c2cccc(F)c2)sc1C(=O)N[C@H]1CCCNC1 [AZD7762] (partner 0.2 µM); assay: relative viability (nuclei count vs DMSO), 5 days (fraction); higher = more cells survive
Procedure, shortened: (§1)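 Relative viability is defined as nuclei in treated wells over nuclei in vehicle wells. Duplicate plates were run and medians reported. Lung cancer cell lines in 1536-well plates were dosed by pin tool one day after seeding, with one drug or with a fixed anchor-drug dose plus five library-drug doses (not always all listed) in √10 steps, and nuclei were counted after 5 days.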

BI-D1870 + Vorinostat = compound: CC(C)CCN1c2nc(Nc3cc(F)c(O)c(F)c3)ncc2N(C)C(=O)C1C [BI-D1870] + O=C(CCCCCCC(=O)Nc1ccccc1)NO [Vorinostat] (partner 1 µM); assay: as above
Procedure, shortened: as §1

Row | Cell Line | relative viability (BI-D1870 + AZD7762; first compound 0.04 µM) | relative viability (BI-D1870 + AZD7762; first compound 0.1265 µM) | relative viability (BI-D1870 + AZD7762; first compound 0.4 µM) | relative viability (BI-D1870 + AZD7762; first compound 1.265 µM) | relative viability (BI-D1870 + AZD7762; first compound 4 µM) | relative viability (BI-D1870 + Vorinostat; first compound 0.04 µM) | relative viability (BI-D1870 + Vorinostat; first compound 0.1265 µM) | relative viability (BI-D1870 + Vorinostat; first compound 0.4 µM) | relative viability (BI-D1870 + Vorinostat; first compound 1.265 µM) | relative viability (BI-D1870 + Vorinostat; first compound 4 µM)
1 | NCI-H647 | 0.432 | 0.502 | 0.494 | 0.611 | 0.479 | 0.666 | 0.346 | 0.669 | 0.536 | 0.335
2 | NCI-H650 | 1.14 | 0.83 | 0.897 | 1.17 | 0.778 | 0.478 | 0.407 | 0.413 | 0.413 | 0.386
3 | NCI-H661 |  |  |  |  |  | 0.815 | 0.806 | 0.764 | 0.691 | 0.451
4 | NCI-H727 | 0.575 | 0.793 | 0.569 | 0.838 | 0.515 | 1.32 | 1.22 | 0.986 | 1.19 | 1.08
5 | NCI-H838 | 0.994 | 0.909 | 0.893 | 1.04 | 0.947 | 0.719 | 0.643 | 0.682 | 0.68 | 0.558
6 | NCI-H1355 | 0.954 | 0.732 | 0.7 | 0.849 | 0.551 | 0.74 | 0.613 | 0.657 | 0.731 | 0.608
7 | NCI-H1395 | 0.398 | 0.374 | 0.42 | 0.427 | 0.454 | 0.774 | 0.641 | 0.801 | 0.705 | 0.597
8 | NCI-H1437 | 1.09 | 1.06 | 1.12 | 1.1 | 1.06 | 0.809 | 0.747 | 0.749 | 0.76 | 0.492
9 | NCI-H1648 | 0.67 | 0.677 |  | 0.646 | 0.57 | 0.345 | 0.333 |  | 0.626 | 0.697
10 | NCI-H1650 |  |  |  |  |  | 0.613 | 0.425 | 0.646 | 0.595 | 0.577
11 | NCI-H1651 | 0.511 | 0.491 | 0.395 | 0.465 | 0.403 | 0.557 | 0.536 | 0.472 | 0.623 | 0.451
12 | NCI-H1666 | 0.934 | 0.868 | 0.778 | 0.995 | 0.812 | 1.03 | 1.01 | 0.942 | 0.956 | 1.02
13 | NCI-H1703 | 0.143 |  | 0.122 | 0.142 | 0.116 |  |  |  |  | 
14 | NCI-H1734 | 0.635 | 0.494 | 0.608 | 0.72 | 0.593 | 0.805 | 0.744 | 0.78 | 0.779 | 0.617
15 | NCI-H1755 | 0.417 | 0.412 | 0.407 | 0.486 | 0.404 | 0.938 | 0.738 | 0.705 | 0.849 | 0.788
16 | NCI-H1792 | 0.728 | 0.599 | 0.72 | 0.72 | 0.527 |  |  |  |  | 
17 | NCI-H1793 | 0.74 | 0.411 | 0.296 | 0.417 | 0.504 | 0.914 | 0.718 | 0.615 | 1.04 | 0.606
18 | NCI-H1915 | 0.706 | 0.636 | 0.665 | 0.7 | 0.616 | 0.55 | 0.484 | 0.513 | 0.489 | 0.436
19 | NCI-H1944 | 0.624 | 0.433 | 0.514 | 0.685 | 0.546 | 0.894 | 0.5 | 0.484 | 0.57 | 0.405

Row | Cell Line | relative viability (BI-D1870 + AZD7762; first compound 0.04 µM) | relative viability (BI-D1870 + AZD7762; first compound 0.1265 µM) | relative viability (BI-D1870 + AZD7762; first compound 0.4 µM) | relative viability (BI-D1870 + AZD7762; first compound 1.265 µM) | relative viability (BI-D1870 + AZD7762; first compound 4 µM) | relative viability (BI-D1870 + Vorinostat; first compound 0.04 µM) | relative viability (BI-D1870 + Vorinostat; first compound 0.1265 µM) | relative viability (BI-D1870 + Vorinostat; first compound 0.4 µM) | relative viability (BI-D1870 + Vorinostat; first compound 1.265 µM) | relative viability (BI-D1870 + Vorinostat; first compound 4 µM)
20 | NCI-H1975 | 0.791 | 0.611 | 0.721 | 0.732 | 0.653 | 0.747 | 0.617 | 0.686 | 0.664 | 0.425
21 | NCI-H1993 | 0.878 | 0.682 | 1.03 | 0.988 | 0.471 | 0.763 | 0.689 | 0.767 | 1.1 | 0.631
22 | NCI-H2009 |  |  |  |  |  | 0.776 | 0.629 | 0.76 | 0.599 | 0.461
23 | NCI-H2023 |  |  |  |  |  | 0.795 | 0.507 | 0.571 | 0.643 | 0.457
24 | NCI-H2085 | 1.06 | 0.972 | 0.927 | 0.97 | 0.771 | 0.828 | 0.733 | 0.709 | 0.781 | 0.509
25 | NCI-H2087 | 1.41 | 1.4 | 1.37 | 1.45 | 1.41 | 0.634 | 0.595 | 0.96 | 0.92 | 0.849
26 | NCI-H2126 | 1.02 | 1.02 | 0.95 | 1.05 | 0.991 | 0.802 | 0.718 | 0.719 | 0.735 | 0.578
27 | NCI-H2170 | 0.977 | 0.882 | 0.844 | 0.923 | 0.654 | 1.01 | 0.786 | 0.786 | 0.783 | 0.675
28 | NCI-H2228 |  |  |  |  |  | 0.889 | 0.512 | 0.824 | 0.959 | 0.32
29 | NCI-H2342 | 0.493 | 0.609 | 0.392 | 0.803 | 0.667 | 0.806 | 0.61 | 0.718 | 0.812 | 0.966
30 | NCI-H2347 | 0.811 | 0.768 | 0.798 | 0.933 | 0.822 | 0.524 | 0.677 | 0.597 | 0.776 | 0.545
31 | NCI-H2405 | 0.875 | 0.707 | 0.717 | 0.806 | 0.624 | 1.04 | 1.03 | 1 | 0.974 | 0.9
32 | NCI-H3122 | 0.947 | 0.902 | 0.952 | 1.06 | 0.944 | 1.05 | 0.633 | 0.858 | 1.21 | 0.998
33 | PC-3 [JPC-3] | 0.851 | 0.75 | 0.837 | 0.693 | 0.449 | 0.817 | 0.795 | 0.81 | 0.625 | 0.394
34 | PC-14 | 0.449 | 0.301 | 0.361 | 0.344 | 0.316 | 0.825 | 0.625 | 0.58 | 0.699 | 0.569
35 | SK-LU-1 |  |  |  |  |  | 0.823 | 0.615 | 0.71 | 0.625 | 0.35
36 | SK-MES-1 |  |  |  |  |  | 1.16 | 0.905 | 0.933 | 0.949 | 0.691
37 | SW 1573 |  |  |  |  |  | 1.07 | 0.6 | 0.99 | 0.619 | 0.448
38 | UMC-11 |  |  |  |  |  | 0.394 | 0.377 | 0.337 | 0.329 | 0.128
